Legend:
sVEGFR2 mRNA [1] = experiment: RT-PCR analysis of sVEGFR2 mRNA from HUVECs two days after morpholino transfection; assay type: cell-based, human
Protocol: To limit the possibility of genomic contamination, VEGFR2exon10_F (designed in exon10) and VEGFR2_R (designed in intron13) were used for primers to detect sVEGFR2.
(§1) Each morpholino oligomer was purchased from Gene Tools (Philomath, Oreg.). The sequences of each morpholino oligomer and primers for PCR are listed in supplemental Table. HUVECs (Lonza, Walkersville, Md.) were cultured in EBM with EGM SingleQuot Kit supplements and growth factors according to the manufacturer's instructions (Lonza, Walkersville, Md.). MS-1 cells, a mouse endothelial cell line (ATCC, Manassas, Va.) were cultured in 5% FBS/DMEM. Morpholino oligomers were delivered to the nucleus by nucleofection (Amaxa, Gaithersburg, Md.) with a Basic Nucleofector Kit for Primary Mammalian Endothelial Cells (Amaxa, Gaithersburg, Md.) using program A-034 for HUVEC and MS-1 cells. For each nucleofection, 1×10^6 cells were used and plated on a 6-well plate. After 2 days of culture, cells were trypsinized and total RNA was extracted using a RNeasy mini kit (Qiagen, Valencia, Calif.) with DNaseI treatment. Detection of mbVEGFR2 was achieved by flow cytometry. […] The cells were washed three times and fluorescence was detected by a FACScan Analyzer (BD Biosciences, San Jose, Calif.). […]

sVEGFR2 mRNA [2] = experiment: Real-time PCR of sVEGFR2 mRNA after morpholino transfection of HUVECs; assay type: cell-based, human; conditions: GAPDH as internal control, compared with DPBS transfected HUVECs, p<0.001
From the text: (§2) In addition, two polyadenylation sites (AAUAAA) are found in intron13 (FIG. 1A). […] FIG. 1(a) illustrates a schematic design of anti-sense morpholino oligomers. FIGS. 1(b, c) show the results of mbVEGFR2 and sVEGFR2 mRNA expression quantified by real-time PCR after morpholino transfection. All results are normalized by GAPDH expression and compared with DPBS transfected HUVECs as 1. p: risk factor by two-tail student's t-test. *: p<0.05, **p<0.01, ***p<0.001 compared with DPBS transfected HUVECs; n=6 for all groups; Error bar is ±s.e.m. It is thus concluded that human polyadenylation of sVEGFR2 mRNA occurs in intron13, and thus the present disclosure examines whether disruption of splicing between exon13-exon14 upregulates sVEGFR2.
(§3) It was discovered that VEGFR2_MOe13 downregulates mbVEGFR2 mRNA by 40% (p<0.05), while VEGFR2_MOi13 upregulates mbVEGFR2 mRNA by 2.5-fold (p<0.01) compared with DPBS transfected HUVECs.
(§4) Each morpholino oligomer was purchased from Gene Tools (Philomath, Oreg.). […] The cells were washed three times and fluorescence was detected by a FACScan Analyzer (BD Biosciences, San Jose, Calif.). […]
(§5) cDNAs were synthesized from 400 ng total RNA using Omniscript RT kit (Qiagen, Valencia, Calif.) and Oligo-dT primer(dT20) according to the manufacturer's instructions. Real-time PCR was performed using QuantiTect SYBR Green PCR Kit (Qiagen, Valencia, Calif.) and 1 μl of cDNA. […]

mbVEGFR2 mRNA = experiment: Real-time PCR of mbVEGFR2 mRNA after morpholino transfection of HUVECs; assay type: cell-based, human; conditions: GAPDH as internal control, compared with DPBS transfected HUVECs
From the text: as §2, §3, §4, §5

mbVEGFR2 protein [3] = experiment: Flow cytometry analysis of mbVEGFR2 protein on cell surfaces of transfected HUVECs; assay type: cell-based, human; conditions: flow cytometry three days after nucleofection, DPBS 83.3%
Protocol: (§6) Next, mbVEGFR2 protein expression by western blot was examined. VEGFR2_MOe13 or a combination of VEGFR2_MOe13 and VEGFR2_MOi13 reduced mbVEGFR2 protein expression compared to DPBS and STD_MO. […] (f) HUVECs stained with only secondary antibody were used as a negative control. […] To confirm sVEGFR2 protein expression, western blot from culture medium of morpholino transfected HUVECs was performed using an antibody recognizing the extracellular domains of VEGFR2 (FIG. 5). […] It is known that mbVEGFR2 can be glycosylated, thus increasing the molecular weight from 150 kD to 230 kD. In addition, sVEGFR2 has been detected at 160 kDa, although it has not reported whether this was derived from alternative polyadenylation or proteolytic cleavage from mbVEGFR2. Based on this information, it is likely that sVEGFR2 protein, upregulted following morpholino treatment, is glycosylated with an observed molecular weight of 150 kDa.
Each morpholino oligomer was purchased from Gene Tools (Philomath, Oreg.). The sequences of each morpholino oligomer and primers for PCR are listed in supplemental Table. HUVECs (Lonza, Walkersville, Md.) were cultured in EBM with EGM SingleQuot Kit supplements and growth factors according to the manufacturer's instructions (Lonza, Walkersville, Md.). […] The cells were washed three times and fluorescence was detected by a FACScan Analyzer (BD Biosciences, San Jose, Calif.). […]

sVEGFR2 protein = experiment: Western blot of culture medium of morpholino transfected HUVECs against VEGFR2 extracellular domain; assay type: cell-based, human; conditions: three days, antibody to VEGFR2 extracellular domains
Protocol: as §6
(§7) After nucleofection, cells were cultured in a 75 cm^2 flask for three days without changing the medium. After three days the media was collected and cell debris was removed by centrifugation. Trichloroacetic acid (20% (w/v), Fisher Scientific, Pittsburgh, Pa.) was added to concentrate the supernatant (final concentration of trichloroacetic acid was 10%). Cells were incubated in trichloroacetic acid for 30 minutes on ice and then centrifuged at ×12000 g 4° C. for 5 minutes. […]

sVEGFR2 mRNA [4] = experiment: Long-range 3'RACE from morpholino transfected HUVECs; assay type: cell-based, human
Protocol: To determine the 3′UTR of sVEGFR2 mRNA induced by morpholinos, long-range 3′RACE was performed (FIG. 5C). A strong band (˜1600 bp) was detected from VEGFR2_MOe13 and the combination of VEGFR2_MOe13 and VEGFR2_MOi13 transfected HUVECs. Based on the sequence of this band, sVEGFR2 mRNA utilizes a polyadenylation site located in 1403-1408 nt range of intron13 (FIG. 6B). […] These sequence components are similar to typical polyadenylation signals, which contain a cleavage site 10-35 nt downstream of AAUAAA and a GU-rich region 14-70 nt downstream of AAUAAA. […] Corneal tissue is known to predominantly express sVEGFR2.
cDNA was synthesized from total RNA extracted from morpholino transfected HUVEC using a cloning_R1 (Table 1). PCR was performed using a LongRange PCR Kit (Qiagen, Valencia, Calif.). PCR conditions: 93° C. for 3 minutes, 35 cycles of 93° C. for 15 seconds, 55° C. for 30 seconds and 68° C. for 6 minutes using VEGFR2_F1 and cloning_R2. After 1% agarose gel electrophoresis, specific bands were excised and subjected to DNA sequencing. To determine endogenous 3′UTR of sVEGFR2 mRNA, total RNA extracted from one human cornea which was obtained from the Utah Lions Eye Bank. cDNA was synthesized with the same above method, and PCR was performed using cloning_F(1042-1061) which is designed in human VEGFR2 intron13 and cloning_R2.

mbVEGFR2 protein [5] = experiment: Western blot for mbVEGFR2 from morpholino transfected HUVECs; assay type: cell-based, human; conditions: compared to DPBS and STD_MO
Protocol: as §6, §7

[6] = test system: laser-induced choroidal neovascularization (CNV); experiment: Laser-induced choroidal neovascularization (CNV) in mouse; assay type: in vivo; conditions: 2 μl intravitreously day 1 and day 4: 100 ng/μl moVEGFR2_MOe13, 500 ng/μl anti-mouse VEGF-A IgG, 2 ng/μl SU1498, CNV volume day 7
Protocol: It was also examined whether moVEGFR2_MOe13 inhibits laser-induced choroidal neovascularization (CNV). Each morpholino or DPBS was injected intravitreously on day 1 and day 4 after laser photocoagulation, and laser CNV volumes were examined on day 7. […] Vessel endothelial cells were stained with Alexa fluor488 conjugated isolectin GS-IB4. […] After photocoagulation, on day 1 and day 4, 2 ul of 100 ng/μl STD_MO, 500 ng/μl Goat IgG (AB-108-C, R&D Systems, Minneapolis, Minn.), 100 ng/μl moVEGFR2_MOe13, 500 ng/μl Goat Anti-mouse VEGF-A IgG (AF-493-NA, R&D Systems, Minneapolis, Minn.) or 2 ng/μl SU1498 (572888, EMD chemicals, Gibbstown, N.J.) was injected intravitreously. On day 7, CNV volumes were measured by confocal microscope. n=14-20 for each group. Risk factors (p-value) were calculated by two-tail student's t-test (*: p<0.05, **p<0.01). Error bar is ±s.e.m.
as §1

Compound | detection of sVEGFR2 mRNA by RT-PCR (sVEGFR2 mRNA [1]) | increase of sVEGFR2 mRNA (sVEGFR2 mRNA [2]) [fold] | upregulation of mbVEGFR2 mRNA (mbVEGFR2 mRNA; p<0.01) [fold] | mbVEGFR2 positive cells (mbVEGFR2 protein [3]) [%] | sVEGFR2 protein in culture medium by western blot (sVEGFR2 protein) | 3'RACE band (~1600 bp) corresponding to sVEGFR2 mRNA using the polyadenylation site in intron13 (sVEGFR2 mRNA [4]) | downregulation of mbVEGFR2 mRNA (mbVEGFR2 mRNA; p<0.05) [%] | mbVEGFR2 protein expression by western blot (mbVEGFR2 protein [5]) | suppression of CNV compared with anti-VEGF-A IgG and SU1498 (FIG. 9) [6]
5′-CCACACGCTctagacacacaaaaag-3′ (antisense CCACACGCTCTAGACACACAAAAAG; all phosphorodiamidate morpholino (PMO)) [VEGFR2_MOi13, antisense morpholino oligomer corresponding to the junction of intron13-exon14 of human VEGFR2] | detected | 4.4 | 2.5 | 82.5 | could not detect | did not show a strong band |  |  | 
5′-gatccagaattgtctccctacCTAG-3′ (antisense GATCCAGAATTGTCTCCCTACCTAG; all phosphorodiamidate morpholino (PMO)) [VEGFR2_MOe13, antisense morpholino oligomer corresponding to the junction of exon13-intron13 of human VEGFR2] | detected | 17 |  | 40.7 | 150 kD bands were detected | strong band | 40 | reduced | 
CC(C)c1cc(/C=C(\C#N)C(=O)NCCCc2ccccc2)cc(C(C)C)c1O [SU1498, reference compound] |  |  |  |  |  |  |  |  | inhibitory effects
